We go through 23 molecules from patent US20160130278A1 (TAISHO PHARMACEUTICAL CO., LTD, priority 2013, published 2016).

For the test, the target named is T1, human type 1 glycine transporter (GlyT1) (Homo sapiens, UniProt P48067).
T1 construct: T98G cells (glioma cells) expressing human type 1 glycine transporter (GlyT1) were used
T1 sequence (P48067 1-706): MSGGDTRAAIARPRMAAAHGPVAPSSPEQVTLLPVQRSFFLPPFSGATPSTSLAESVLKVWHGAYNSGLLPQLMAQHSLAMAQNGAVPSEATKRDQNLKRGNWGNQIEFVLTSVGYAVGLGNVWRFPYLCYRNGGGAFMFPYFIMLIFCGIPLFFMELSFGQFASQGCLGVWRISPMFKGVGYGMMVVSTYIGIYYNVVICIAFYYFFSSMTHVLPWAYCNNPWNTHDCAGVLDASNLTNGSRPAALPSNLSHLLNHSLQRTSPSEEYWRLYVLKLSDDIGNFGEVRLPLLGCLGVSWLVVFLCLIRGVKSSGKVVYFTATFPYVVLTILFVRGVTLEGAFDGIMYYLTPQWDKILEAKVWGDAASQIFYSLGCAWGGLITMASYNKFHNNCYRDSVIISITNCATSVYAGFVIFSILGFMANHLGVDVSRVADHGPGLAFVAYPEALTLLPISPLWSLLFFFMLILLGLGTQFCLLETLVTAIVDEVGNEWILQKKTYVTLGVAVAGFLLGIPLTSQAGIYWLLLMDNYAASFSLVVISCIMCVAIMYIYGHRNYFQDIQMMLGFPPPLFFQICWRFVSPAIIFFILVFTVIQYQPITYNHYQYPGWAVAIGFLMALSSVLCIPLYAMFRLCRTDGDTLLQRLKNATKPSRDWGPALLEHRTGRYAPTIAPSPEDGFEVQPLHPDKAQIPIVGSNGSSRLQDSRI
The test is described as follows: Glycine uptake inhibition experiment ([3H]glycine uptake). It counts as cell-based. The note with it: GlyT1. In outline:
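T98G glioma cells expressing human GlyT1 were pretreated 10 min with compound in HEPES buffer pH 7.4 (0.2% BSA), then incubated with compound plus 250 nM final [3H]glycine for 15 min at room temperature. Intracellular radioactivity was counted after NaOH lysis; 10 μM ALX5407 defined non-specific uptake. IC50 came from 10^−9–10^−5 M curves.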

Broadly, the IC50 is the concentration at which inhibition is half-maximal. Low readings indicate inhibition by little substance, high ones a need for much substance. `O=C(NC(c1ccccc1Cl)[C@]1(O)CC[C@@H](F)CC1)c1ccnc(C(F)(F)F)c1Cl` (single isomer, unassigned) [Compound 211, 3-chloro-N-[(2-chlorophenyl)(cis-4-fluoro-1-hydroxycyclohexyl)methyl]-2-(trifluoromethyl)pyridine-4-carboxamide] returned a half-inhibitory concentration (IC50) of 0.17 µM. The result for `O=C(NC(c1cccc(F)c1Cl)[C@]1(O)CC[C@@H](F)CC1)c1nccc(C(F)(F)F)c1Cl` (single isomer, unassigned) [Compound 213, 3-chloro-N-[(2-chloro-3-fluorophenyl)(cis-4-fluoro-1-hydroxycyclohexyl)methyl]-4-(trifluoromethyl)pyridine-2-carboxamide] reads 0.037 µM; that for `O=C(NC(c1cccc(F)c1Cl)[C@]1(O)CC[C@@H](F)CC1)c1nccc(C(F)(F)F)c1Cl` (single isomer, unassigned) [Compound 214, 3-chloro-N-[(2-chloro-3-fluorophenyl)(cis-4-fluoro-1-hydroxycyclohexyl)methyl]-4-(trifluoromethyl)pyridine-2-carboxamide], 0.45 µM. The result for `CCn1cc(-c2cccc(C(NC(=O)c3ccc(F)cc3C(F)(F)F)C3(O)CCC(F)(F)CC3)c2)cn1` (single isomer, unassigned) [Compound 215, N-{(4,4-difluoro-1-hydroxycyclohexyl)[3-(1-ethyl-1H-pyrazol-4-yl)phenyl]methyl}-4-fluoro-2-(trifluoromethyl)benzamide] reads 0.21 µM; that for `CCn1cc(-c2cccc(C(NC(=O)c3ccc(F)cc3C(F)(F)F)C3(O)CCC(F)(F)CC3)c2)cn1` (single isomer, unassigned) [Compound 216, N-{(4,4-difluoro-1-hydroxycyclohexyl)[3-(1-ethyl-1H-pyrazol-4-yl)phenyl]methyl}-4-fluoro-2-(trifluoromethyl)benzamide], 5.5 µM; that for `CCn1cc(-c2cccc(C(NC(=O)c3cc(Cl)ccc3C(F)(F)F)C3(O)CCC(F)(F)CC3)c2)cn1` (single isomer, unassigned) [Compound 217, 5-chloro-N-{(4,4-difluoro-1-hydroxycyclohexyl)[3-(1-ethyl-1H-pyrazol-4-yl)phenyl]methyl}-2-(trifluoromethyl)benzamide], 0.58 µM. `CCn1cc(-c2cccc(C(NC(=O)c3cc(Cl)ccc3C(F)(F)F)C3(O)CCC(F)(F)CC3)c2)cn1` (single isomer, unassigned) [Compound 218, 5-chloro-N-[(4,4-difluoro-1-hydroxycyclohexyl)[3-(1-ethyl-1H-pyrazol-4-yl)phenyl]methyl}-2-(trifluoromethyl)benzamide] gave an IC50 of 5.9 µM. Next, `O=C(NC(c1cccc(Cl)c1F)C1(O)CCC(F)(F)CC1)c1cc(C(F)(F)F)ncc1Cl` (single isomer, unassigned) [Compound 219, 5-chloro-N-[(3-chloro-2-fluorophenyl)(4,4-difluoro-1-hydroxycyclohexyl)methyl]-2-(trifluoromethyl)pyridine-4-carboxamide]: 0.92 µM; `O=C(NC(c1cc(F)cc(Cl)c1)[C@]1(O)CC[C@@H](F)CC1)c1nccc(C(F)(F)F)c1Cl` (single isomer, unassigned) [Compound 220, 3-chloro-N-[(3-chloro-5-fluorophenyl)(cis-4-fluoro-1-hydroxycyclohexyl)methyl]-4-(trifluoromethyl)pyridine-2-carboxamide]: 1.8 µM; `CCn1cc(-c2cccc(C(NC(=O)c3c(Cl)ccc(C(F)(F)F)c3Cl)C3(O)CCC(F)(F)CC3)c2)cn1` (single isomer, unassigned) [Compound 221, 2,6-dichloro-N-{(4,4-difluoro-1-hydroxycyclohexyl)[3-(1-ethyl-1H-pyrazol-4-yl)phenyl]methyl}-3-(trifluoromethyl)benzamide]: 5.6 µM.

As to `CCn1cc(-c2cccc(C(NC(=O)c3c(Cl)ccc(C(F)(F)F)c3Cl)C3(O)CCC(F)(F)CC3)c2)cn1` (single isomer, unassigned) [Compound 222, 2,6-dichloro-N-{(4,4-difluoro-1-hydroxycyclohexyl)[3-(1-ethyl-1H-pyrazol-4-yl)phenyl]methyl}-3-(trifluoromethyl)benzamide], half-maximal inhibition (IC50) was put at 0.19 µM. Next, `O=C(NC(c1cccc(F)c1Cl)[C@]1(O)CC[C@@H](F)CC1)c1ccnc(C(F)(F)F)c1Cl` (single isomer, unassigned) [Compound 223, 3-chloro-N-[(2-chloro-3-fluorophenyl)(cis-4-fluoro-1-hydroxycyclohexyl)methyl]-2-(trifluoromethyl)pyridine-4-carboxamide]: 0.056 µM; `Cc1c(Cl)ccnc1C(=O)NC(c1cccc(F)c1Cl)[C@]1(O)CC[C@@H](F)CC1` (single isomer, unassigned) [Compound 224, 4-chloro-N-[(2-chloro-3-fluorophenyl)(cis-4-fluoro-1-hydroxycyclohexyl)methyl]-3-methylpyridine-2-carboxamide]: 0.27 µM. The result for `O=C(NC(c1ccc(F)c(Cl)c1)[C@]1(O)CC[C@@H](F)CC1)c1nccc(C(F)(F)F)c1Cl` (single isomer, unassigned) [Compound 225, 3-chloro-N-[(3-chloro-4-fluorophenyl)(cis-4-fluoro-1-hydroxycyclohexyl)methyl]-4-(trifluoromethyl)pyridine-2-carboxamide] reads 0.39 µM; that for `O=C(NC(c1cccc(Cl)c1F)C1(O)CCC(F)(F)CC1)c1nc(C(F)(F)F)ccc1Cl` (single isomer, unassigned) [Compound 226, 3-chloro-N-[(3-chloro-2-fluorophenyl)(4,4-difluoro-1-hydroxycyclohexyl)methyl]-6-(trifluoromethyl)pyridine-2-carboxamide], 1.3 µM; that for `O=C(NC(c1ccc(F)c(Cl)c1)[C@]1(O)CC[C@@H](F)CC1)c1nccc(C(F)(F)F)c1Cl` (single isomer, unassigned) [Compound 228, 3-chloro-N-[(3-chloro-4-fluorophenyl)(cis-4-fluoro-1-hydroxycyclohexyl)methyl]-4-(trifluoromethyl)pyridine-2-carboxamide], 4.2 µM. The result for `O=C(NC(c1cccc(Cl)c1)C1(O)CCCCC1)c1nccc(C(F)(F)F)c1Cl` (single isomer, unassigned) [Compound 229, 3-chloro-N-[(3-chlorophenyl)(1-hydroxycyclohexyl)methyl]-4-(trifluoromethyl)pyridine-2-carboxamide] reads 0.028 µM. `O=C(NC(c1cccc(Cl)c1)C1(O)CCCCC1)c1nccc(C(F)(F)F)c1Cl` (single isomer, unassigned) [Compound 230, 3-chloro-N-[(3-chlorophenyl)(1-hydroxycyclohexyl)methyl]-4-(trifluoromethyl)pyridine-2-carboxamide] showed an IC50 of 2.8 µM. Next, `[2H]C1([2H])C([2H])([2H])C([2H])([2H])C(O)(C(NC(=O)c2nccc(C(F)(F)F)c2Cl)c2cccc(Cl)c2)C([2H])([2H])C1([2H])[2H]` (single isomer, unassigned) [Compound 231, 3-chloro-N-{(3-chlorophenyl)[1-hydroxy(^2H10)cyclohexyl]methyl}-4-(trifluoromethyl)pyridine-2-carboxamide]: 0.04 µM; `[2H]C1([2H])C([2H])([2H])C([2H])([2H])C(O)(C(NC(=O)c2nccc(C(F)(F)F)c2Cl)c2cccc(Cl)c2)C([2H])([2H])C1([2H])[2H]` (single isomer, unassigned) [Compound 232, 3-chloro-N-{(3-chlorophenyl)[1-hydroxy(^2H10)cyclohexyl]methyl}-4-(trifluoromethyl)pyridine-2-carboxamide]: 1.4 µM.

The molecule `O=C(N[C@@H](c1cccc(F)c1)C1(O)CCC(F)(F)CC1)c1nccc(C(F)(F)F)c1Cl` (single isomer, unassigned) [Compound 233, 3-chloro-N-[(4,4-difluoro-1-hydroxycyclohexyl)(3-fluorophenyl)methyl]-4-(trifluoromethyl)pyridine-2-carboxamide] returned a concentration for half-maximal inhibition (IC50) of 0.12 µM. Next, `O=C(NC(c1cc(Cl)ccc1Cl)C1(O)CCC(F)(F)CC1)c1nccc(C(F)(F)F)c1Cl` (single isomer, unassigned) [Compound 234, 3-chloro-N-[(2,5-dichlorophenyl)(4,4-difluoro-1-hydroxycyclohexyl)methyl]-4-(trifluoromethyl)pyridine-2-carboxamide]: 0.28 µM; `O=C(NC(c1cc(Cl)ccc1Cl)C1(O)CCC(F)(F)CC1)c1nccc(C(F)(F)F)c1Cl` (single isomer, unassigned) [Compound 235, 3-chloro-N-[(2,5-dichlorophenyl)(4,4-difluoro-1-hydroxycyclohexyl)methyl]-4-(trifluoromethyl)pyridine-2-carboxamide]: 0.74 µM.
